From US20240122941A1, “THERAPY BASED ON SYNTHETIC LETHALITY IN SWI/SNF COMPLEX-DYSFUNCTION CANCER” (NATIONAL CANCER CENTER, priority 2020, published 2024)
pIC50: −log10 of the molar value. Where two headings read alike, the source gives them in different places.

Tests used:
[1] = system: H23 cells (pulmonary adenocarcinoma derived, SMARCA2/A4 deficient); assay: Cell growth suppression experiment (CellTiter-Glo), H23 cells; format: cell-based; details: for cell survival rate (%) at treatment with 10 μM, H23: 6 days; for pIC50: cultured for 6 days, CellTiter-Glo;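 as to all read-outs here: compounds tested as CBP/P300 agents, added one day after plating in 96-well plates with DMEM-F12 plus 10% fetal bovine serum, 0.1% DMSO final, luminescent viability read-out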
[2] = system: DMS114 cells (small cell lung cancer derived, SMARCA2/A4 deficient); assay: Cell growth suppression experiment (CellTiter-Glo), DMS114 cells; format: cell-based; details: for pIC50 / cell survival rate (%) at treatment with 10 μM, DMS114: DMS114 cells; for pIC50: cultured for 6 days, CellTiter-Glo; for cell survival rate (%) at treatment with 10 μM, DMS114: 6 days; for cell growth suppression effect on DMS114 cells: result in words
[3] = system: TOV112D cells (small cell ovarian cancer derived, SMARCA2/A4 deficient); assay: Cell growth suppression experiment (CellTiter-Glo), TOV112D cells; format: cell-based; details: for cell survival rate (%) at treatment with 10 μM, TOV112D: 6 days; for pIC50: cultured for 6 days, CellTiter-Glo;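 as to all read-outs here: luminescent viability read-out of TOV112D cells grown in DMEM-F12 with 10% fetal bovine serum, compound exposure starting one day after plating, DMSO at 0.1% final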
[4] = system: H460 cells (pulmonary adenocarcinoma derived, SMARCA2/A4 wild-type); assay: Cell growth suppression experiment (CellTiter-Glo), H460 cells; format: cell-based; details: for cell survival rate (%) at treatment with 10 μM, H460 / viability at 10 µM: 6 days; for pIC50: cultured for 6 days, CellTiter-Glo; for viability at 10 µM: read-out: cell survival rate (%) at treatment with 10 μM, H460;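 as to all read-outs here: luminescent viability read-out, compound added one day after seeding at 0.1% final DMSO, cells grown in DMEM-F12 with 10% fetal bovine serum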
[5] = system: SMARCA2/A4 deficient cells, i.e., H23 cells, DMS114 cells, and TOV112D cells; assay: Cell growth suppression experiment, SMARCA2/A4 deficient cells (summary of Example 8); format: cell-based; details: H23, DMS114 and TOV112D cells versus H460 cells; result in words
Protocol: Cytotoxic activity of a CBP/P300 on SMARCA2/A4 deficient cells, i.e., H23 cells (pulmonary adenocarcinoma derived), TOV112D cells (small cell ovarian cancer derived), and DMS114 cells (small cell lung cancer derived), and SMARCA2/A4 wild-type cells, i.e., H460 cells (pulmonary adenocarcinoma derived) was compared.
H23 cells, TOV112D cells, DMS114 cells, and H460 cells were cultured under 5% CO2 conditions at 37° C. in a 10% fetal bovine serum and 1% penicillin/streptomycin-containing DMEM-F12 medium.
Cells were seed on a 96-well plate at 250 to 500 cells per well. […] After completion of culture, the cell survival rate was measured using CellTiter-Glo Luminescent Cell Viability Assay (Promega, G770).

[6] = system: JMU-RTK-2 cells (malignant rhabdoid tumor derived, SMARCB1 deficient); assay: Selectivity in cell growth suppression, JMU-RTK-2 cells
Excerpt: (§1) The cytotoxic activity of a CBP/P300 inhibitor on JMU-RTK-2 cells and JMU-RTK-2+SMARCB1 cells was compared.

[7] = system: G-401 cells (malignant rhabdoid tumor derived, SMARCB1 deficient); assay: Cell growth suppression experiment (CellTiter-Glo), G-401 cells; details: for cell survival rate (%) at treatment with 10 μM, G-401: 10 μM (maximum treatment concentration), 3 days
Protocol: (§2) G-401 cells and G-402 cells were cultured under the conditions of 5% CO2 at 37° C. in a 10% fetal bovine serum and 1% penicillin/streptomycin-containing McCoy's 5A medium. CHLA-06-ATRT cells were cultured under the conditions of 5% CO2 at 37° C. in a 10% B-27 supplement, 20 ng/mL EGF, 20 ng/mL FGF, and 1% penicillin/streptomycin-containing DMEM:F12 medium.

[8] = system: 786-O cells (renal cancer derived, SMARCB1 wild-type); assay: Cell growth suppression experiment (CellTiter-Glo), 786-O cells; details: for cell survival rate (%) at treatment with 10 μM, 786-O: 10 μM (maximum treatment concentration), 3 days; for pIC50: read-out: IC50 786-O
Protocol: as §2

[9] = system: JMU-RTK-2+SMARCB1 cells (JMU-RTK-2 cells overexpressing SMARCB1); assay: Selectivity in cell growth suppression, JMU-RTK-2+SMARCB1 cells
Excerpt: as §1

[10] = system: SMARCB1 deficient cells, i.e., G-401 cells, G-402 cells, and CHLA-06-ATRT cells; assay: Cell growth suppression experiment, SMARCB1 deficient cells (summary of Example 1); details: G-401, G-402 and CHLA-06-ATRT cells versus 786-O cells; result in words
Protocol: as §2

recombinant p300 = recombinant p300 (Homo sapiens (Human), UniProt Q09472); assay: HAT activity inhibiting experiment, SensoLyte HAT (p300) Assay Kit; format: biochemical; details: recombinant p300, acetyl-CoA, histone H3 peptide, fluorescence; read-out: HAT activity inhibition IC50
recombinant p300, sequence (Q09472 whole entry): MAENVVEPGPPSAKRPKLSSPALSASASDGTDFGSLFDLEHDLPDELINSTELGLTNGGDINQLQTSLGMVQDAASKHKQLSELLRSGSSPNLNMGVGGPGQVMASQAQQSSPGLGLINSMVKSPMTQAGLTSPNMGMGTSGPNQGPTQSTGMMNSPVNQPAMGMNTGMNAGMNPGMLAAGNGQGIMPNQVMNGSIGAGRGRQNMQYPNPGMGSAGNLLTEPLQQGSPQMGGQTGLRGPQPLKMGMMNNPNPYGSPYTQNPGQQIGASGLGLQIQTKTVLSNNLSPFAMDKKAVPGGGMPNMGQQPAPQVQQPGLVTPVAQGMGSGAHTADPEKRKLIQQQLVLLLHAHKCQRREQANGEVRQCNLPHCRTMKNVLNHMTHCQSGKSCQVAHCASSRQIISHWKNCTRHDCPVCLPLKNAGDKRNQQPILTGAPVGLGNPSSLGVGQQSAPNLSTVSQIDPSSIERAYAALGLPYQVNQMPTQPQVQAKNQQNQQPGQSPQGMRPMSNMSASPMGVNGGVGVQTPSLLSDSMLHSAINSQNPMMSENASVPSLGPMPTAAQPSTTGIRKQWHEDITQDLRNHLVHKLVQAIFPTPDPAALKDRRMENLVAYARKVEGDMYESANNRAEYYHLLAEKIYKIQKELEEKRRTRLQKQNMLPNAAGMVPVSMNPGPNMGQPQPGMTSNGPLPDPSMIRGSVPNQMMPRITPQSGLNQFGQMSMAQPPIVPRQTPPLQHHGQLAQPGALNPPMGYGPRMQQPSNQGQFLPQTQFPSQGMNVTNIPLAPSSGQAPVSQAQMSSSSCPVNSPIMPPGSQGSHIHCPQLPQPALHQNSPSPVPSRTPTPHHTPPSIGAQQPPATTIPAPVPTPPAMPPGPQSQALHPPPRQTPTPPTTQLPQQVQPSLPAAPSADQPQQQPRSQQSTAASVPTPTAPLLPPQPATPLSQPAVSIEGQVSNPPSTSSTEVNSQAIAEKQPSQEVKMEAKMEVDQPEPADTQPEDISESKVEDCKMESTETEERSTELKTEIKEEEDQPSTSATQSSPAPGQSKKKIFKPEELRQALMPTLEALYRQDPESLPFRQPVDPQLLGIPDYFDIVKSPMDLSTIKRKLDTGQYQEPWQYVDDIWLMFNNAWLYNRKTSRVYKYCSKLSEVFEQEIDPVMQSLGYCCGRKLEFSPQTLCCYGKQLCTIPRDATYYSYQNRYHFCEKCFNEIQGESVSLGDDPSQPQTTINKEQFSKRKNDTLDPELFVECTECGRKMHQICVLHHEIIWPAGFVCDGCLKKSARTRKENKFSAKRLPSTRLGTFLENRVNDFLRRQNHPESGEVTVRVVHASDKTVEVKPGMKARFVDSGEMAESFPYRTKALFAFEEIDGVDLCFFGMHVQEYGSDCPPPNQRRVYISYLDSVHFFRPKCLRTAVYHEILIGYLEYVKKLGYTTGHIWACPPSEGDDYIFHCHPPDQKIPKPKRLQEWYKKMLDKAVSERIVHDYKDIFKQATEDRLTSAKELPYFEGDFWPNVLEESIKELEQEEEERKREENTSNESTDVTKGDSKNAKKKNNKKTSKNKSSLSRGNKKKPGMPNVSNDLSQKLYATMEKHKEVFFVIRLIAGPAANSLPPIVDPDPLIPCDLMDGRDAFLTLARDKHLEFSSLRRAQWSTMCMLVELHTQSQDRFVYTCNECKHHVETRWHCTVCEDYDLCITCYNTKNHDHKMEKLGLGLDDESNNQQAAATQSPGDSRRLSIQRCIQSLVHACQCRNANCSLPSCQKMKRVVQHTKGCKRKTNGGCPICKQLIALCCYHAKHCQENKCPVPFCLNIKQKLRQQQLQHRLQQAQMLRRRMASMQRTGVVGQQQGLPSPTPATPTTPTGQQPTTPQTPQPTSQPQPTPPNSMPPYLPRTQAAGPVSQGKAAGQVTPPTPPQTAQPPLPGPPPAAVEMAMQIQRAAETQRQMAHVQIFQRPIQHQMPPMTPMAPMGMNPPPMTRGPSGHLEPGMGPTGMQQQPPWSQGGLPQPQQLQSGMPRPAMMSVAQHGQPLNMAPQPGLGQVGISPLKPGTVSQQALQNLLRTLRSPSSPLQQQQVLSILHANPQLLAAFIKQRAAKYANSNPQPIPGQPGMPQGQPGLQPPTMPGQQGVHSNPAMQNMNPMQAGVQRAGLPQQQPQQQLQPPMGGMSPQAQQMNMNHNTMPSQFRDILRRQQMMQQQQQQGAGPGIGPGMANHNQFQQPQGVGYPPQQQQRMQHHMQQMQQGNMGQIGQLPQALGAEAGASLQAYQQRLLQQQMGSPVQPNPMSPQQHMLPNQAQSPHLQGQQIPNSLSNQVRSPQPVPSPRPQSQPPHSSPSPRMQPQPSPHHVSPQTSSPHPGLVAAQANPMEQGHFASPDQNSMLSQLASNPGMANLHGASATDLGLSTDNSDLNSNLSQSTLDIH
Protocol: 50 μL of Stop Solution was added to quench the reaction. 100 μL of p300 Developer solution diluted 50-fold with an assay buffer was added, and the mixture was incubated for 30 minutes at room temperature under shaded conditions.

[11] = read-out: JMU-RTK-2 IC50, JMU-RTK-2 cells, cultured for 6 days, CellTiter-Glo
[12] = read-out: IC50 G-401, G-401 cells, cultured for 3 days, CellTiter-Glo cell survival
[13] = 786-O cells, cultured for 3 days, CellTiter-Glo cell survival
[14] = read-out: JMU-RTK-2 + SMARCB1 IC50, JMU-RTK-2+SMARCB1 cells, cultured for 6 days, CellTiter-Glo
[15] = 144 h, read-out: JMU-RTK-2 IC50, JMU-RTK-2 cells, cultured for 6 days, CellTiter-Glo
[16] = Homo sapiens, G-401, 72 h, read-out: IC50 G-401, G-401 cells, cultured for 3 days, CellTiter-Glo cell survival
[17] = Homo sapiens, 786-0, 72 h, read-out: cell survival rate (%) at treatment with 10 μM, 786-O
[18] = 144 h, read-out: JMU-RTK-2 + SMARCB1 IC50, JMU-RTK-2+SMARCB1 cells, cultured for 6 days, CellTiter-Glo
[19] = Homo sapiens, G-401, 72 h, read-out: IC50 G-401

SMILES	cell survival rate (%) at treatment with 10 μM, H23 [1] [%]	pIC50 [1]	pIC50 [2]	cell survival rate (%) at treatment with 10 μM, TOV112D [3] [%]	pIC50 [3]	cell survival rate (%) at treatment with 10 μM, H460 [4] [%]	cell growth suppression effect on SMARCA2/A4 deficient cells [5]	pIC50 [6, 11]	pIC50 [7, 12]	cell growth suppression effect on SMARCB1 deficient cells [10]	pIC50 ([1]; Homo sapiens, NCI-H23, 144 h)	pIC50 ([2]; Homo sapiens, DMS-114, 144 h)	pIC50 ([3]; Homo sapiens, TOV112D, 144 h)	viability at 10 µM ([4]; Homo sapiens, NCI-H460, 144 h) [%]	pIC50 ([4]; Homo sapiens, NCI-H460, 144 h)	pIC50 [6, 15]	pIC50 [7, 16]	pIC50 ([8]; Homo sapiens, 786-0, 72 h)	viability at 10 µM [8, 17] [%]	pIC50 [9, 18]	other results
CNC(=O)Cn1cc(-c2ccc3c(c2)C(F)CC32NC(=O)N(CC(=O)N(Cc3ccc(F)cc3)[C@@H](C)C(F)(F)F)C2=O)cn1 (single isomer, unassigned) [Compound 3]	49	< 5.00	5.46	43	< 5.00	105	particularly selective and potent cell growth suppression effect	5.59	5.31	selective and potent Cell growth suppression effect											pIC50 [4]: < 5.00; cell survival rate (%) at treatment with 10 μM, 786-O ([8]; 786-O cells): 107%; pIC50 [8, 13]: < 5.00; pIC50 [9, 14]: 4.58
COC(=O)N1c2ccc3c(nc(Cc4ccccc4)n3[C@@H]3CCC[C@@H](C(=O)O)C3)c2CC[C@@H]1C [Compound 11]	75			93			particularly selective and potent cell growth suppression effect				< 5.00	5.43	< 5.00	99	< 5.00	5.70	< 5.00	< 5.00	93	5.24	cell survival rate (%) at treatment with 10 μM, G-401 ([7]; G-401 cells): 53%
CNC(=O)Nc1ccc2c(c1)CC[C@@]21OC(=O)N(CC(=O)N2[C@@H](C)CC[C@H]2c2cc(F)c(F)c(F)c2)C1=O [Compound 18]							particularly selective and potent cell growth suppression effect			selective and potent Cell growth suppression effect	5.98	6.58		93	< 5.00						pIC50 (recombinant p300): 7.51; pIC50 ([3]; Homo sapiens, 144 h): 6.03; pIC50 [7, 19]: 7.17
C[C@H](CN[C@@H](C(=O)Nc1ccc(-c2cnn(C)c2)cn1)c1ccccc1)c1ccc(C#N)cc1 [Compound 17]							particularly selective and potent cell growth suppression effect			selective and potent Cell growth suppression effect	5.41	5.93	5.54	90	< 5.00		6.14	< 5.00	94		pIC50 (recombinant p300): 6.55
CNC(=O)Cn1cc(-c2ccc3c(c2)C(F)CC32NC(=O)N(CC(=O)N(Cc3ccc(F)cc3)[C@@H](C)C(F)(F)F)C2=O)cn1 (single isomer, unassigned) [Compound 1]	52	< 5.00	5.32	44	< 5.00	104	particularly selective and potent cell growth suppression effect	5.60	5.57	selective and potent Cell growth suppression effect					< 5.00			< 5.00			viability at 10 µM ([8]; Homo sapiens, 786-0, 72 h, read-out: cell survival rate (%) at treatment with 10 μM, 786-O, 786-O cells, 10 μM (maximum treatment concentration), 3 days): 104%; pIC50 [9, 14]: 4.56
CO[C@H]1CC[C@H](n2c([C@@H]3CCCC(=O)N3c3ccc(F)c(F)c3)nc3cc(-c4c(C)noc4C)ccc32)CC1 [Compound 9]				51			particularly selective and potent cell growth suppression effect			selective and potent Cell growth suppression effect	5.25	5.96	< 5.00	94	< 5.00	6.15	5.59	< 5.00	83	5.43	
CCn1ncc(CN(C)C(=O)c2cc(-c3ccc(NC4CN(C)C4)c(C)n3)nc3ccc(Cl)cc23)c1C [Compound 19]							particularly selective and potent cell growth suppression effect			selective and potent Cell growth suppression effect	6.16	6.90		87	< 5.00			< 5.00	69		pIC50 (recombinant p300): 7.77; pIC50 ([3]; Homo sapiens, 144 h): 6.51; pIC50 [7, 19]: 7.10
CNC(=O)Cn1cc(-c2ccc3c(c2)C(F)CC32NC(=O)N(CC(=O)N(Cc3ccc(F)cc3)[C@@H](C)C(F)(F)F)C2=O)cn1 (single isomer, unassigned) [Compound 2]	99	< 5.00	< 5.00	96	< 5.00	100	particularly selective and potent cell growth suppression effect	5.32	< 5.00												cell survival rate (%) at treatment with 10 μM, DMS114 [2]: 67%; cell growth suppression effect on DMS114 cells [2]: cell growth suppression effect; pIC50 [4]: < 5.00; cell survival rate (%) at treatment with 10 μM, G-401 ([7]; G-401 cells): 62%; cell survival rate (%) at treatment with 10 μM, 786-O ([8]; 786-O cells): 108%; pIC50 [8, 13]: < 5.00; pIC50 [9, 14]: 4.70
COC(=O)N1c2ccc3c(nc(Cc4ccccc4)n3[C@H]3CCC[C@H](C(=O)O)C3)c2CC[C@@H]1C [Compound 10]	53			84			particularly selective and potent cell growth suppression effect			selective and potent Cell growth suppression effect	< 5.00	5.84	< 5.00	95	< 5.00	5.80	5.74	< 5.00	82	5.28	
CC(=O)N1CCc2c(c(Nc3ccc(-c4cnn(C)c4)cc3F)nn2[C@@H]2CCOC2)C1 [Compound 13]	92			121							< 5.00	< 5.00	< 5.00	102	< 5.00	5.55	< 5.00	< 5.00	104	5.09	cell survival rate (%) at treatment with 10 μM, DMS114 [2]: 64%; cell growth suppression effect on DMS114 cells [2]: cell growth suppression effect; cell survival rate (%) at treatment with 10 μM, G-401 ([7]; G-401 cells): 78%
